Six compounds from ChEMBL document CHEMBL3227944, “Beta-adrenoceptor studies. 5. 1H NMR and IR spectroscopic analysis of the conformation of the hydrohalide salts of beta-adrenoceptor-blocking aryloxypropanolamines. Evidence for a seven-membered ring structure with participation of two hydrogen bonds” (J Med Chem, 1979) can be followed below.

Assay [1] can be described thus: Antagonist activity at guinea pig atrium beta-adrenoceptor assessed as inhibition of isoprenaline-induced effect. It counts as tissue-based, Cavia porcellus, Cardiac atrium.
For assay [2], the species on record is Cavia porcellus. Nature of the assay: Competitive antagonist activity at guinea pig trachea beta-adrenoceptor assessed as inhibition of isoprenaline-induced effect up to 10^-4 M. It counts as tissue-based.
For assay [3], the species on record is Cavia porcellus. Nature of the assay: Competitive antagonist activity at guinea pig atrium beta-adrenoceptor assessed as inhibition of isoprenaline-induced effect up to 3 X 10^-5 M. It counts as tissue-based. The settings on record: Cardiac atrium.
A short description of assay [4]: Antagonist activity at guinea pig trachea beta-adrenoceptor assessed as inhibition of isoprenaline-induced effect. It is filed as tissue-based, Cavia porcellus.

For orientation: pA2 means a measure of antagonist potency on a negative log scale.

The source made the active and inactive calls. The rule behind the calls is not given here.

In the case of `Cc1cccc(OCC(CCl)NC(C)C)c1.Cl` (configuration not stated), the pA2 in assay [1] is given as 4.86. For the same compound, in the assay filed under Cavia porcellus [2], the result was inactive.

Turning to `COCC(COc1cccc(C)c1)NC(C)C.Cl` (configuration not stated), the pA2 in assay [1] came out at 4.66. Besides, the result in the assay filed under Cavia porcellus [2] was inactive.

For `Cc1cccc(OCC(Cl)CNC(C)C)c1` (configuration not stated), the outcome in the assay listed under Cavia porcellus [3] and in the assay listed under Cavia porcellus [2] was inactive.

As for `Cc1cccc(OCC(CO)NC(C)C)c1.Cl` (configuration not stated), the pA2 in assay [4] was found to be 5.21; in assay [1], 5.08.

Turning to `Cc1cccc(OCC(O)CNC(C)C)c1.Cl` (configuration not stated), the pA2 in assay [4] turned out to be 7.97; in assay [1], 8.76.

Regarding `COC(CNC(C)C)COc1cccc(C)c1.Cl` (configuration not stated), the pA2 in assay [1] worked out at 5.41. In addition, the outcome in the assay listed under Cavia porcellus [2] was inactive.
